Experiments:
[1] = system: ID-1; conditions: LNCaP cells, in the presence of androgen
[2] = system: PSA; conditions: LNCaP cells, mRNA
[3] = system: LNCaP cells
Experimental: Human prostatic cancer cell lines LNCaP, DU-145, PC-3, and Tsu-prl were obtained from ATCC. LNCaP cancer cells were maintained in humidified atmosphere of 5% CO2 in air in RPMI 1640 medium supplemented with 10% fetal calf serum (Life Technologies, Inc, Rockville, Md.), 3 mM L-glutamine, 100 μg/ml streptomycin and 100 units/ml penicillin. Other lines were maintained in DMEM containing 3 mM L-glutamine, 100 μg/ml streptomycin, 100 units/ml penicillin, and 10% FCS in humidified atmosphere of 5% CO2. To examine the effects of steroids, cells were cultured in RPMI 1640 medium containing 5% FCS treated with dextran coated charcoal (Hyclone, Logan, Utah) for 24 hs before treatment. Cells were grown in the absence or presence of 10 nM DHT for 0, 2, 4, 6, 12, 24, 48, and 72 hs. They were collected and frozen at each time point. Two hundred μl of medium were collected from each flask for PSA assay.
To verify the effect of DHT on the growth of LNCaP cells, cells at 3,000 cells/well were plated in 96-well plates for 24 hs before treatment with DHT. After 72 hs, MTT was added to each well and incubated at 37° C. for four hs. At the end of incubation, the supernatant was removed and 100 μl DMSO was added to each well to dissolve […]. Plates were subsequently read in a plate reader at […].

[4] = system: ID-3; conditions: LNCaP cells, in the presence of androgen
[5] = system: PSA

C[C@]12CCC(=O)C[C@@H]1CC[C@@H]1[C@@H]2CC[C@]2(C)[C@@H](O)CC[C@@H]12 [DHT, dihydrotestosterone]
ID-1 expression level [1]: reduced
PSA expression increase relative to control ([2]; 12 hours): 3 fold
PSA expression induction relative to control ([2]; 72 hours): approximately 4 fold
growth-stimulatory effect ([3]; 10 nM DHT): robust growth-stimulatory effect
growth of LNCaP cells ([3]; MTT assay, FIG. 1A): stimulated
ID-3 expression level [4]: reduced
PSA production [5]: increased in a dose-dependent manner
time at which PSA signal was first detected [5]: 12 h
time of maximal PSA level [5]: about 48 hs

Source: patent US20020182614A1, “Expression analysis of inhibitor of differentiation nucleic acids and polypeptides useful in the diagnosis and treatment of prostate cancer” (priority 2000, published 2002)
